Experimental findings from US20060205772A1, “Amide derivatives and their use as inhibitors of 11-beta-hydroxysteroid dehydrogenase type I” (priority 2003, published 2006) are described below.

For experiment [1], the target named is T1, human 11β-HSD2 (Homo sapiens, UniProt P80365).
T1 construct: using lysates of SW-620 cells as the enzyme source; host or cells: SW-620 human colon carcinoma cells (lysate)
T1 sequence (P80365 1-405): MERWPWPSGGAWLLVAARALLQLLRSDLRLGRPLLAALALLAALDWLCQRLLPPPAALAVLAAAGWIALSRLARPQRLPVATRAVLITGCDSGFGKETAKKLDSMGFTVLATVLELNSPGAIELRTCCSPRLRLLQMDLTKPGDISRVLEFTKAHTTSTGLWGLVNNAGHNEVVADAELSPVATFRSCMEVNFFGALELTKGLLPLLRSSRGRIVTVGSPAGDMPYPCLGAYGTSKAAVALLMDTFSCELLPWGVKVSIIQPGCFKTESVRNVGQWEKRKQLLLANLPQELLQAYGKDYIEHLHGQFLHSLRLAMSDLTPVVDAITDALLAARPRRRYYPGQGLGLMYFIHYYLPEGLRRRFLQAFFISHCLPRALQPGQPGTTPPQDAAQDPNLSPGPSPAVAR
The experiment in a line: in vitro inhibition of human 11β-HSD2 (SW-620 cell lysates, [3H]cortisol to [3H]cortisone). The class given is biochemical. The protocol: The in vitro inhibition of human 11β-HSD2 is determined as follows:
The SW-620 human colon carcinoma cell line is obtained from the American Type Culture Collection (ATCC). Cells are plated at a density of 8-10×10^4 cells/cm^2 in DMEM/F12 containing 5% BCS, 100 U/mL penicillin, 100 μg/mL streptomycin and […] amphotericin B. Cultures are grown to 80-90% confluence in a humidified, atmosphere of 5% CO2 at 37° C. The medium is changed to serum-free, phenol red-free DMEM/F12 at 24 h before harvesting the cells.
After 24 h in serum-free medium, cultured SW-620 cells are rinsed and scraped in Kreb's-Ringer buffer, pH 7.4, containing 1 mM EDTA, 2 μg/mL aprotinin, 10 μM leupeptin and 1 μM pepstatin. After sonication (30 seconds) and low speed centrifugation (2,000 rpm, 5 min) to remove cellular debris, the supernatant is collected and used to determine enzyme activity and protein concentration (BCA, Pierce, Rockford, Ill.).
Dehydrogenase activity is quantified by measuring the conversion of [^3H]cortisol to [^3H]cortisone using lysates of SW-620 cells as the enzyme source. The assay is performed in tubes containing Kreb's-Ringer buffer pH 7.4, with 0.20 mM NAD and 200,000 dpm of [^3H]cortisol and a test compound in a total volume of 1 mL. The tubes are preincubated for 10 min at 37° C. before adding 200 μg of cell lysates to start the reaction. After incubation for 1 h at 37° C. in a shaking water bath, the mixture is extracted with 2 volumes of ethyl acetate and centrifuged for 10 min at 2,000 rpm. The organic layer is collected, dried under vacuum and resuspended in methanol. The dissolved residues are quantitatively transferred to thin layer plates and developed in chloroform-methanol (90:10). Unlabeled cortisol and cortisone were used as reference markers. The TLC plates are scanned on a Bioscan radioimaging detector (Bioscan, Washington, D.C.), and the fractional conversion of cortisol to cortisone is calculated. Enzyme activity is expressed as pmoles of product formed per mg protein per hour. Carbenoxolone and glycyrrhetinic acid are used as standards.

In experiment [2] the test system is corticosterone production in adrenalectomized (ADX) mice. Kind of experiment: inhibition of corticosterone production in adrenalectomized (ADX) mice. The class given is in vivo. The following applies: Mus musculus, po; ADX CD1 mice, orally 25 mg/kg each at 2 and 4 h before sacrifice; liver corticosterone. As for the experimental part:
Inhibition of corticosterone production in adrenalectomized (ADX) mice is determined as follows:
Bilateral adrenalectomy is performed in male mice of the CD1 strain (6 to 8 weeks of age, 25-30 g body weight) through a lumbar laparotomy. After 10 days the animals are fasted for 24 h. Compounds are administered orally at 25 mg/kg each at 2 and 4 h before sacrifice. A second group of animals receives carbenoxolone at the same dose, and a third group receives the vehicle (cornstarch). Homogenized liver samples are used to measure corticosterone concentration which is determined by radioimmunoassay and is expressed as pg of corticosterone per mg of liver protein.

Experiment [3] deals with T2, human recombinant 11β-HSD1 (Homo sapiens, UniProt P28845).
T2 construct: made in house; host or cells: Pichia pastoris (microsomal fraction)
T2 sequence (P28845 whole entry): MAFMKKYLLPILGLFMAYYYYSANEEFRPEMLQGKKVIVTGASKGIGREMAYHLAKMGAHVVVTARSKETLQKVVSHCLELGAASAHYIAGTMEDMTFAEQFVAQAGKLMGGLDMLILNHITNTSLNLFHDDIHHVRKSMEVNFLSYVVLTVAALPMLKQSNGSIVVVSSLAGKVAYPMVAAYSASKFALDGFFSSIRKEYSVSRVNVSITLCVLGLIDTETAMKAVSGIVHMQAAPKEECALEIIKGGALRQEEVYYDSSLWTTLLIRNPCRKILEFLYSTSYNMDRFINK
The experiment in a line: in vitro inhibition of human recombinant 11β-HSD1 (Pichia pastoris microsomes, [3H]cortisone to [3H]cortisol). The class given is biochemical. The following applies: recombinant human 11β-HSD1 microsomes, 500 nM cortisone mixture, NADPH, 90 min at 37° C. The protocol: The in vitro inhibition of human recombinant 11β-HSD1 is determined as follows:
Recombinant human 11β-HSD1 is expressed in yeast Pichia pastoris. Cultures are grown at 30° C. for 3 days in the presence of methanol to induce enzyme expression. The microsomal fraction overexpressing 11β-HSD1 is prepared from the cell homogenate and used as the enzyme source for primary screening. A test compound at the desired concentration is preincubated for 10 min at RT with 3 μg of the microsomal protein in 50 mM sodium phosphate, pH 7.5, in a total volume of 80 μL. The enzyme reaction is initiated by adding 20 μL of a mixture containing 5 mM NADPH, 500 nM cortisone, and 80,000 dpm of [^3H]cortisone in the same buffer and is terminated by ethyl acetate after incubation for 90 min at 37° C. The production of [^3H]cortisol is quantitated upon separation from [^3H]cortisone by a C18 column on HPLC equipped with a radioactivity detector. Glycerrhetinic acid, a known inhibitor of 11β-HSD1, is used as a standard.

For experiment [4], the target named is T3, cellular 11β-HSD1 (Rattus norvegicus, UniProt P16232).
T3 construct: Enzyme activity is measured in the medium of primary cultures of rat hepatocytes 48 h after plating the cells; endogenous in cells; host or cells: primary hepatocytes of male Sprague-Dawley rats
T3 sequence (P16232 whole entry): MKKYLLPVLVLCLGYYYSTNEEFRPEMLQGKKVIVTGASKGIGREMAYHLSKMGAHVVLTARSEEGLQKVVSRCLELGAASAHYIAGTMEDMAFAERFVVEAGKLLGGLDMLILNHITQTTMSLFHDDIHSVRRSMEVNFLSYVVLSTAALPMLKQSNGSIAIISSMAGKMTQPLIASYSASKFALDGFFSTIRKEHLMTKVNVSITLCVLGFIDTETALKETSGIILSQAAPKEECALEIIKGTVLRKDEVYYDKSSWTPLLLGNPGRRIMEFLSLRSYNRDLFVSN
Kind of experiment: inhibition of cellular 11β-HSD1 activity in primary rat hepatocytes. The class given is cell-based. Particulars: 2 h incubation. As for the experimental part: The inhibition of cellular 11β-HSD1 activity in primary rat hepatocytes is determined as follows:
Male Sprague-Dawley rats weighing 180-200 g are anesthetized with sodium pentobarbital (65 mg/kg). The liver is perfused in situ with calcium-free Earl's Balanced Salt Solution (EBSS) followed by EBSS containing 100-150 U/mL of collagenase, 1.8 mM CaCl2 and 10 mM HEPES, pH 7.4. The perfused liver is removed and aseptically placed in warm William's Medium E containing 10% BCS. After decapsulation, the organ is transferred to fresh medium and gently shaken to facilitate tissue dissociation and cell release. Hepatocytes are separated from nonparenchymal and dead cells by repeated low speed centrifugation. Cell viability is determined by trypan blue exclusion.
Hepatocytes are plated on collagen coated dishes at a density of 1×10^5 cells/cm^2 in William's medium E containing 10% BCS, 100 U/mL penicillin, 100 μg/mL streptomycin, 0.25 μg/mL amphotericin B, 2 mM L-glutamine, 10 mM HEPES, 100 nM insulin and 1 nM dexamethasone. After 1 h the medium is changed to serum-free William's medium E supplemented as described above. Thereafter, the medium is replaced every 24 h. The cultures are maintained in a humidified atmosphere of 5% CO2 at 37° C.
Enzyme activity is measured in the medium of primary cultures of rat hepatocytes 48 h after plating the cells. The medium is aspirated and replaced with serum-free William's medium E containing 2 nM [^3H]11-dehydrocorticosterone and a test compound and is incubated for 2 h. An aliquot of culture medium is removed at the end of the incubation and the mixture is extracted with 2 volumes of ethyl acetate, dried under vacuum and resuspended in methanol. The dissolved residues are quantitatively transferred to thin layer plates and developed in chloroform-methanol (90:10). The TLC plates are scanned on a Bioscan imaging detector and the fractional conversion of 11-dehydrocorticosterone to corticosterone is calculated. The cell layer is rinsed with cold phosphate-buffered saline and dissolved in 0.1 N NaOH/5% SDS for the determination of cellular protein (BCA, Pierce, Rockford, Ill.). Enzyme activity is expressed as pmoles of product formed per mg protein per hour.

As to `O=C(c1ccc(-c2ccccc2[N+](=O)[O-])o1)N1CCC[C@@H]2CCCC[C@@H]21` [Example 35-15], the inhibition (commonly the change of the read-out against control, counted positive when it falls) at 10 µM in experiment [1] turned out to be 34%. The change in vivo at 25 mg/kg in experiment [2] was -67%. The IC50 (in general, the concentration that gives 50% inhibition) in experiment [3] was 7.7 nM. In experiment [4], testing at 1 µM gave an inhibition of 76%.
Take `O=C(Nc1ccc(C(=O)N2CCC[C@@H]3CCCC[C@@H]32)cc1)c1ccc(F)cc1` [Example 11-13]: the inhibition at 10 µM in experiment [1] worked out at 2%. Besides, in experiment [2], the change in vivo at 25 mg/kg was -73%. The half-maximal inhibitory concentration (IC50) in experiment [3] stood at 563 nM. For the same compound, the inhibition at 1 µM in experiment [4] is 90%.
For `COc1ccccc1CNC(=O)c1ccc(C(=O)N2CCC[C@@H]3CCCC[C@@H]32)cc1` [Example 23-47], in experiment [1], the inhibition at 10 µM was 49%. In addition, the change in vivo at 25 mg/kg in experiment [2] was -61%. The half-inhibitory concentration (IC50) in experiment [3] is 2120 nM. Further, the inhibition at 1 µM in experiment [4] turned out to be 71%.
